Reference: patent US20130190223A1, “NONIMMUNOSUPPRESSIVE CYCLOSPORINE ANALOGUE MOLECULES” (ISOTECHNIKA PHARMA INC., priority 2008, published 2013)
Where two headings read alike, the source gives them in different places.

Legend:
CyP-A = CyP-A (Homo sapiens, UniProt P62937); details: cited from earlier work
calcineurin = details: literature statement; cited from earlier work
human lymphocytes = test: Immunosuppressive potency: inhibition of proliferation of anti-CD3 stimulated human lymphocytes (CFSE, flow cytometry); type: cell-based; details: relative potency: IC50 for inhibition of cell division normalized to CsA, 3 days incubation
Protocol: The immunosuppressive potency of test compounds was assessed by measuring their ability to inhibit the proliferation of human lymphocytes in cell culture. Lymphocytes were isolated from blood of normal human volunteers by Ficoll-gradient centrifugation and stained with 2 μg/ml carboxyfluoroscein diacetate succinimydyl ester (CFSE), a fluorescent cell division tracer molecule. Cells were stimulated through the CD3/T-cell receptor by seeding cells at 300,000/well into 96-well flat-bottom, high-binding plates coated with 1 μg/ml UCHT-1 anti-human CD3 antibody. Test compounds were prepared first as 10 mg/ml stock solutions in dimethylsulfoxide (DMSO). Test solutions were prepared by 500-fold dilution of the DMSO stock solutions, then 3-fold serial dilutions in cell culture medium (RPMI+5% FBS+penicillin-steptomycin) for a total of 7 concentrations per compound. Test solutions were added in equal volume to the culture wells containing cells to achieve final concentrations after dilution of 13.7 ng/ml-10,000 ng/ml. […] Following 3 days incubation cells were stained with CD95-APC (lymphocyte activation marker) and analyzed by flow cytometry with a Becton Dickinson FACSCalibur. Percentage cell division was assessed in forward/side-scatter-gated lymphocytes by measuring the proportion of cells that underwent one or more cell divisions as determined by serial halving of CFSE intensity. The nondivided parent population was determined from samples maintained in culture without anti-CD3 stimulation. IC50 values for inhibition of cell division were determined by nonlinear regression analysis. […]

CyP-D = target: T1, CyP-D (Rattus norvegicus, UniProt P29117); type: biochemical; details: mitochondria isolated from rat liver, 190 μM calcium, swelling as decline in A540
T1 construct: Mitochondria were isolated from fresh rat liver; from tissue; host or cells: rat liver mitochondria
T1 sequence (P29117 30-206): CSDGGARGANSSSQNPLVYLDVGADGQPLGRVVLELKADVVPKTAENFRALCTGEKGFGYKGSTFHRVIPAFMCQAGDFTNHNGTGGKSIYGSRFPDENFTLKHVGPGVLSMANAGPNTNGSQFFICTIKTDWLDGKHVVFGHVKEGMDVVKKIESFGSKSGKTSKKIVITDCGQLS
Source text: A mitochondria swelling assay was used to measure the efficacy of NICAMs in blocking CyP-D and mitochondrial permeability transition. Under certain pathological conditions, mitochondria lose the ability to regulate calcium levels, and excessive calcium accumulation in the mitochondrial matrix results in the opening of large pores in the inner mitochondrial membrane. Nonselective conductance of ions and molecules up to 1.5 kilodaltons through the pore, a process called mitochondrial permeability transition, leads to swelling of mitochondria and other events which culminate in cell death. […] In general, mitochondria isolated from rat liver were exposed to calcium to induce MPTP opening in the absence or presence of test compounds, and calcium-induced swelling was measured as a reduction in light absorbance at 540 nm.
Mitochondria were isolated from fresh rat liver. Ice-cold or 4° C. conditions were used throughout all steps of the isolation. The liver was rinsed thoroughly and chopped in a small volume of isolation buffer (IB; 10 mM Hepes, 70 mM sucrose, 210 mM mannitol, 0.5 mM EDTA). Aliquots of the minced liver were homogenized in IB using a Teflon-glass Potter-Elvehjem tissue grinder and passed through a cell screen filter. The filtered homogenate was centrifuged at 600 g for 10 min, then the resulting supernatant centrifuged at 7000 g for 10 min. The supernatant was discarded, and the pellet resuspended in wash buffer (10 mM Hepes, 70 mM sucrose, 210 mM mannitol) and centrifuged a final time at 7000 g for 10 min. The supernatant was discarded, and the mitochondria-containing pellet suspended and stored on ice in 2 mL of respiration buffer (RB; 5 mM Hepes, 70 mM sucrose, 210 mM mannitol, 10 mM sodium succinate, 1 mM sodium phosphate dibasic).
Test compound solutions were prepared from 10 mg/ml stocks (dimethyl sulfoxide vehicle) first by diluting the test compound 1000× into respiration buffer #2 (RB2; 5 mM Hepes, 70 mM sucrose, 210 mM mannitol, 10 mM sodium succinate, 1 mM sodium phosphate dibasic, 1% fetal bovine serum, 2 μM rotenone), then by 3×-serial dilutions in RB2 to achieve test compound concentrations of 10000, 3333, 1111, 370, 123, 41, and 14 ng/mL. Polystyrene tubes and plates were used for all preparations.
Swelling assays were completed in a 96-well flat-bottom polystyrene plates. In each well a 10-μL aliquot of mitochondria suspension, equivalent to 100-200 μg total protein, was combined with 90 μL of test compound, incubated for 10 min, then the baseline absorbance measured on a plate reader (540 nm wavelength; A540). Swelling was induced by adding 5 μL of 4 mM calcium chloride to achieve a final calcium concentration of 190 μM. Mitochondria swelling was indicated by a decline in A540. […] Duplicate samples were assayed for each test compound concentration.
Means and ranges of duplicate samples are shown.

Chain of CyP-A (P62937 whole entry): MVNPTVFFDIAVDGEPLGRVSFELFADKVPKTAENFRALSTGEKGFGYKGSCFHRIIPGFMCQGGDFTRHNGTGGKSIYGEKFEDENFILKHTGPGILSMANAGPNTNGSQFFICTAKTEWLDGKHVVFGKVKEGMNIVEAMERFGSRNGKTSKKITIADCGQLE

SMILES	binding affinity for CyP-A (CyP-A)	immunosuppressive activity (calcineurin)	binding affinity for CyP-A (CyP-A; literature statement)	Immunosuppression (% Relative to CsA) (human lymphocytes) [%]	CYP-D Inhibition (% Potency Vs CsA) (CyP-D) [%]
C/C=C/C[C@@H](C)[C@@H](O)[C@H]1C(=O)N[C@@H](CC)C(=O)N(C)[C@H](SCCN(C)C)C(=O)N(C)[C@@H](CC(C)(C)O)C(=O)N[C@@H](C(C)C)C(=O)N(C)[C@@H](CC(C)C)C(=O)N[C@@H](C)C(=O)N[C@H](C)C(=O)N(C)[C@@H](CC(C)C)C(=O)N(C)[C@@H](CC(C)C)C(=O)N(C)[C@@H](C(C)C)C(=O)N1C [SCY-635, DimethylaminoethylthioSar^3-hydroxyLeu^4-Cyclosporin]	retains binding affinity for CyP-A	no immunosuppressive activity			
C/C=C/C[C@@H](C)[C@@H](O)[C@H]1C(=O)N[C@@H](CC)C(=O)N(C)CC(=O)N(C)[C@@H]([C@@H](C)CC)C(=O)N[C@@H](C(C)C)C(=O)N(C)[C@@H](CC(C)C)C(=O)N[C@@H](C)C(=O)N[C@H](C)C(=O)N(C)[C@@H](CC(C)C)C(=O)N(C)[C@@H](CC(C)C)C(=O)N(C)[C@@H](C(C)C)C(=O)N1C [NIM 811, Melle^4-cyclosporine]		no immunosuppressive activity	retains binding affinity for CyP-A		
C/C=C/C[C@@H](C)[C@@H](O)[C@H]1C(=O)N[C@@H](CC)C(=O)N(C)[C@H](C)C(=O)N(CC)[C@@H](C(C)C)C(=O)N[C@@H](C(C)C)C(=O)N(C)[C@@H](CC(C)C)C(=O)N[C@@H](C)C(=O)N[C@H](C)C(=O)N(C)[C@@H](CC(C)C)C(=O)N(C)[C@@H](CC(C)C)C(=O)N(C)[C@@H](C(C)C)C(=O)N1C [DEBIO 025, MeAla^3EtVal^4-Cyclosporin]	retains binding affinity for CyP-A	no immunosuppressive activity			
CCC1NC(=O)C(C(O)C(C)CC=CCCCCC(=O)N2CCOCC2)N(C)C(=O)C(C(C)C)N(C)C(=O)C(CC(C)C)N(C)C(=O)C(CC(C)C)N(C)C(=O)C(C)NC(=O)C(C)NC(=O)C(CC(C)C)N(C)C(=O)C(C(C)C)NC(=O)C(CC(C)C)N(C)C(=O)CN(C)C1=O (centres unmarked) [Compound 404-162]				<1	91.1
CCC1NC(=O)C(C(O)C(C)CC=CCCCC(=O)N(C)C)N(C)C(=O)C(C(C)C)N(C)C(=O)C(CC(C)C)N(C)C(=O)C(CC(C)C)N(C)C(=O)C(C)NC(=O)C(C)NC(=O)C(CC(C)C)N(C)C(=O)C(C(C)C)NC(=O)C(CC(C)C)N(C)C(=O)CN(C)C1=O (centres unmarked) [Compound 404-156]				1	82.2
CCOC(=O)CCCCCCC=CCC(C)C(O)C1C(=O)NC(CC)C(=O)N(C)CC(=O)N(C)C(CC(C)C)C(=O)NC(C(C)C)C(=O)N(C)C(CC(C)C)C(=O)NC(C)C(=O)NC(C)C(=O)N(C)C(CC(C)C)C(=O)N(C)C(CC(C)C)C(=O)N(C)C(C(C)C)C(=O)N1C (centres unmarked) [Compound 420-113]				<1	33.2
CCC1NC(=O)C(C(O)C(C)CCCCC(=O)N(C)C)N(C)C(=O)C(C(C)C)N(C)C(=O)C(CC(C)C)N(C)C(=O)C(CC(C)C)N(C)C(=O)C(C)NC(=O)C(C)NC(=O)C(CC(C)C)N(C)C(=O)C(C(C)C)NC(=O)C(CC(C)C)N(C)C(=O)CN(C)C1=O (centres unmarked) [Compound 404-132]				<1	122.0
